Reference: patent publication US9012443B2 (Amgen Inc., priority 2011, dated 2015)

Columns and labels:
Nav 1.7 [1] = target: T1, Nav 1.7 (Homo sapiens (Human), UniProt Q15858); assay: Nav 1.7 IWQ in vitro assay (IonWorks Quattro population patch-clamp); type: cell-based; conditions: 293 cells stably transfected with Nav 1.7; second part of table; read-out: Nav1.7 IWQ IC50 IP
In short: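 Percent block, measured in duplicate, came from peak minus end-of-pulse current on the 26th −20 mV step, and IC50 was fitted against concentration. Stably transfected 293 cells were recorded in population patch-clamp mode before and after a single test concentration, which was added over 3–8 min while cells were unclamped.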

Nav 1.7 [2] = target: T1, Nav 1.7; assay: Nav 1.7 in vitro PX assay (PatchXpress whole cell voltage clamp); type: cell-based; conditions: 293 cells, human Nav1.7, partially inactivated state; read-out: Nav1.7 PX IC50 IP
In short: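 Partially inactivated channel state (holding potential for 20–50% inactivation) probed in human Nav1.7-transfected 293 cells by automated patch clamp, test pulse −10 mV for 20 msec.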

T1 sequence (Q15858 whole entry): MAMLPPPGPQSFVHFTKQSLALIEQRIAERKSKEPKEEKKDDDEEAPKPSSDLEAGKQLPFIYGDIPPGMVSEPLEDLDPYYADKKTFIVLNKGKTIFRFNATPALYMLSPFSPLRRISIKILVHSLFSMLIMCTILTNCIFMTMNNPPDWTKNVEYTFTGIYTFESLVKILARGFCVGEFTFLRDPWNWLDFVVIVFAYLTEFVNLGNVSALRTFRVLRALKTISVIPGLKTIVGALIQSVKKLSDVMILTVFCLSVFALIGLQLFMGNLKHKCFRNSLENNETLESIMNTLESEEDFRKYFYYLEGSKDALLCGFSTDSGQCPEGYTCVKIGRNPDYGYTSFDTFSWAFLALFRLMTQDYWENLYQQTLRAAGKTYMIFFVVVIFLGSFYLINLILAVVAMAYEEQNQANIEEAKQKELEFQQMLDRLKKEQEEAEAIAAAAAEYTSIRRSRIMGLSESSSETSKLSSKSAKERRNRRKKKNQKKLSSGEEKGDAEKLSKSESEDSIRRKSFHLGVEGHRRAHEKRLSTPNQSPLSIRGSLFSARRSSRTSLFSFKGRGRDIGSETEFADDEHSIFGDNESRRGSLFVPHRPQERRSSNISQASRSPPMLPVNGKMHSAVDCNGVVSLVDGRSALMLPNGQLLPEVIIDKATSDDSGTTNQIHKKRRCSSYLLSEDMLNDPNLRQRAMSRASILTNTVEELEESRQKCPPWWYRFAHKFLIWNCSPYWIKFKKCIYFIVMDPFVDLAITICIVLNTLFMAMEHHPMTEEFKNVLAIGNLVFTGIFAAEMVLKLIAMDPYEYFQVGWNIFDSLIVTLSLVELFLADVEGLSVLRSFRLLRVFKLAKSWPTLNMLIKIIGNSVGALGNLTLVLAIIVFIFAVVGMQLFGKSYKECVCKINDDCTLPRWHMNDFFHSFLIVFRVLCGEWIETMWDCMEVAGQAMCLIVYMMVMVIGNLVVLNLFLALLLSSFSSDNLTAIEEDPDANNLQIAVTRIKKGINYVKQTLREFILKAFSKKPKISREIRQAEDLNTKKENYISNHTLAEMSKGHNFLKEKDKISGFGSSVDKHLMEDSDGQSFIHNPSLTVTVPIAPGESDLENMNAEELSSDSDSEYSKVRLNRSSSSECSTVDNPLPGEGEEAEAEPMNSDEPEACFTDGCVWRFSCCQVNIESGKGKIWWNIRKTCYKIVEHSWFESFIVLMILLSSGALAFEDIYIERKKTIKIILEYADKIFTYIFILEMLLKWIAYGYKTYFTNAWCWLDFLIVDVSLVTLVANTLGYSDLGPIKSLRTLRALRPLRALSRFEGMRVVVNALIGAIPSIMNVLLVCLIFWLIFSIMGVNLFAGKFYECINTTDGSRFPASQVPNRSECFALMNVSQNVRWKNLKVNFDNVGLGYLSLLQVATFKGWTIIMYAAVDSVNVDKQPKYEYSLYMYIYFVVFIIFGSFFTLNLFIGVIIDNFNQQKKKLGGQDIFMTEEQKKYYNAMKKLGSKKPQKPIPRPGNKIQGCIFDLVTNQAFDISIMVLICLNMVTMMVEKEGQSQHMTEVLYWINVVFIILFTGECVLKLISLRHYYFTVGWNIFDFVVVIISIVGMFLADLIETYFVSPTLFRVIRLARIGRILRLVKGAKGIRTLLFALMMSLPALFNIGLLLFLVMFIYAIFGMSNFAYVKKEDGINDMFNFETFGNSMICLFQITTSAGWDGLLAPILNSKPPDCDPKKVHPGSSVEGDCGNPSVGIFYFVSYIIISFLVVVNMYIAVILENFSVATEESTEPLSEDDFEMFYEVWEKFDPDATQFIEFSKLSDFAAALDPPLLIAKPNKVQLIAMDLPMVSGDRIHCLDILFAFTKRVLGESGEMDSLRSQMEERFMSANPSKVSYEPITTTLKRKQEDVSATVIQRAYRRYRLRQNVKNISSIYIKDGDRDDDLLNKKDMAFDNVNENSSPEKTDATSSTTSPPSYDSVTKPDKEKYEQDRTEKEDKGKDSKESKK

| SMILES | IC50 (Nav 1.7 [1]) | IC50 (Nav 1.7 [2]) |
| --- | --- | --- |
| O=S(=O)(Nc1nccs1)c1ccc2c(C3CCCN3C3CCOCC3)nccc2c1 (stereo not drawn) [Example 245, 1-(1-(TETRAHYDRO-2H-PYRAN-4-YL)PYRROLIDIN-2-YL)-N-(THIAZOL-2-YL)ISOQUINOLINE-6-SULFONAMIDE 2,2,2-TRIFLUOROACETATE] | 2220 nM | 30800 nM |
| COc1cccc(F)c1-c1nccc2cc(S(=O)(=O)Nc3ccncn3)ccc12 [Example 158, 1-(2-FLUORO-6-METHOXYPHENYL)-N-(PYRIMIDIN-4-YL)ISOQUINOLINE-6-SULFONAMIDE] | 180 nM | 5030 nM |
| COc1cccc(OC)c1-c1nccc2cc(S(=O)(=O)Nc3ccncn3)ccc12 [Example 171, 1-(2,6-DIMETHOXYPHENYL)-N-(PYRIMIDIN-4-YL)ISOQUINOLINE-6-SULFONAMIDE] | 730 nM | 23000 nM |
| COc1cc(-c2cccc(C#N)c2)ccc1-c1nccc2cc(S(=O)(=O)Nc3ccncn3)ccc12 [Example 200, 1-(3′-CYANO-3-METHOXY-[1,1′-BIPHENYL]-4-YL)-N-(PYRIMIDIN-4-YL)ISOQUINOLINE-6-SULFONAMIDE] | 30 nM | 424 nM |
| COc1cc(C(F)(F)F)ccc1-c1ncc(OC)c2cc(S(=O)(=O)Nc3nccs3)ccc12 [Example 231, 4-METHOXY-1-(2-METHOXY-4-(TRIFLUOROMETHYL)PHENYL)-N-(THIAZOL-2-YL)ISOQUINOLINE-6-SULFONAMIDE 2,2,2-TRIFLUOROACETATE] | 40 nM | 270 nM |
| CN1CCC(c2cc(C(F)(F)F)ccc2-c2cccc3cc(S(=O)(=O)Nc4ccncn4)ccc23)CC1 [Example 116] | 70 nM | 623 nM |
| COc1ncc(Cl)cc1-c1nccc2cc(S(=O)(=O)Nc3ccncn3)ccc12 [Example 168, 1-(5-CHLORO-2-METHOXYPYRIDIN-3-YL)-N-(PYRIMIDIN-4-YL)ISOQUINOLINE-6-SULFONAMIDE] | 30 nM | 1600 nM |
| COc1ncc(Cl)cc1-c1nccc2cc(S(=O)(=O)Nc3nccs3)ccc12 [Example 176, 1-(5-CHLORO-2-METHOXYPYRIDIN-3-YL)-N-(THIAZOL-2-YL)ISOQUINOLINE-6-SULFONAMIDE] | 30 nM | 507 nM |
| COc1cc(C(F)(F)F)ccc1-c1nccc2cc(S(=O)(=O)Nc3nccs3)cnc12 [Example 291, 8-(2-METHOXY-4-(TRIFLUOROMETHYL)PHENYL)-N-(THIAZOL-2-YL)-1,7-NAPHTHYRIDINE-3-SULFONAMIDE] | 160 nM | 2530 nM |
| O=S(=O)(Nc1nccs1)c1ccc2c(N3CCC[C@H]3c3ccccc3)nccc2c1 [Example 239, (S)-1-(2-PHENYLPYRROLIDIN-1-YL)-N-(THIAZOL-2-YL)ISOQUINOLINE-6-SULFONAMIDE] | 1450 nM | 4590 nM |
| O=S(=O)(Nc1ncc(F)s1)c1ccc2c(-c3ccc(C(F)(F)F)cc3-n3ccnc3)cccc2c1 [Example 112] | 100 nM | 459 nM |
| COc1cc(F)c(F)cc1-c1nccc2cc(S(=O)(=O)Nc3ccncn3)ccc12 [Example 142, 1-(4,5-DIFLUORO-2-METHOXYPHENYL)-N-(PYRIMIDIN-4-YL)ISOQUINOLINE-6-SULFONAMIDE] | 60 nM | 1790 nM |
| O=S(=O)(Nc1nccs1)c1ccc2c(-c3ccc(C(F)(F)F)cc3F)nccc2c1 [Example 228, 1-(2-FLUORO-4-(TRIFLUOROMETHYL)PHENYL)-N-(THIAZOL-2-YL)ISOQUINOLINE-6-SULFONAMIDE] | 110 nM | 1520 nM |
| COc1cc(-c2cccnc2)ccc1-c1nccc2cc(S(=O)(=O)Nc3nccs3)ccc12 [Example 204, 1-(2-METHOXY-4-(PYRIDIN-3-YL)PHENYL)-N-(THIAZOL-2-YL)ISOQUINOLINE-6-SULFONAMIDE] | 30 nM | 614 nM |
| COc1cc(Cl)ccc1-c1ncc(C#N)c2cc(S(=O)(=O)Nc3nccs3)ccc12 [Example 241, 1-(4-chloro-2-methoxyphenyl)-4-cyano-N-(thiazol-2-yl)isoquinoline-6-sulfonamide] | 240 nM | 480 nM |
